The values below come from patent publication US20220354949A1, “NOVEL COMPOUNDS” (XENIOPRO GmbH, priority 2018, published 2022).

Holding throughout (format): cell-based
In assay [1] the test system is MDA-MB-231 cells (human breast carcinoma cells). Description: Proliferation assay (alamarBlue) with MDA-MB-231 cells. As to conditions: compound at 20 μM; for activity at 20 µM: Homo sapiens, Table 69 (novel compounds), read-out: Activity Range: weighted arithmetic mean (AVEw) of normalized fluorescence intensity relative to DMSO basis level 1.0; for Activity Range: weighted arithmetic mean (AVEw) of normalized fluorescence intensity relative to DMSO basis level 1.0: Table 70 (compounds of PCT/EP2018/054686). An excerpt: (§1) The antiproliferative activities of compounds falling under formula (Ia), (Ib) and (Ic), respectively, were investigated on cells or cell lines originating from a disorder of the haematopoietic system, including the myeloid cell compartment and the lymphoid cell compartment (T-cells and B-cells), the neuroendocrine system, the cervix, the breast, the ovaries, the lung, the gastrointestinal tract, and the mucosal epithelium, as well as from the skin epithelium and from the muscle. To this end, HL-60 cells, NB-4 cells, HH cells, RPMI-8402 cells, TANOUE cells, TT cells, HeLa cells, MDA-MB-231 cells, FU-OV-1 cells, LOU-NH91 cells, 23132/87 cells, CAL-27 cells, BHY cells, SCC-25 cells, A-431 cells, human primary epidermal keratinocytes (HPEK), and C2C12 cells were seeded into 96-well plates suitable for fluorescence assays (CORNING #3598) at following initial cell numbers: 1000 cells per well for HL-60; 1000 cells per well for NB-4; 5000 cells per well for HH; 5000 cells per well for RPMI-8402; 1500 cells per well for TANOUE; 9000 cells per well for TT; 2000 cells per well for HeLa; 3000 cells per well for MDA-MB-231; 3000 cells per well for FU-OV-1; 4000 cells per well for LOU-NH91; 2000 cells per well for 23132/87; 2000 cells per well for CAL-27; 1500 cells per well for BHY; 1500 cells per well for SCC-25; 700 cells per well for A-431; 1000 cells per well for HPEK; 500 cells per well for C2C12. The cells were treated with compounds at indicated final concentrations (diluted from the 1000× stock-solutions in DMSO to a final DMSO concentration of 0.1% v/v in H2O (Water For Injection, WFI, Fisherscientific #10378939)) or with the empty carrier DMSO at 0.1% v/v as control for 5 days. At day 5 after starting the treatments the cells were subjected to the alamarBlue® Proliferation Assay (Bio-Rad Serotec GmbH, BUF012B) according to the protocol of the manufacturer. The readout was taken with a multi-well plate-reader in the fluorescence mode with applying a filter for excitation at 560 nm (band width 10 nm) and for emission at 590 nm (band width 10 nm). Control treatments for growth inhibition with commercial compounds such as Methotrexate (MTREX) and Resveratrol (RES) were included on every plate. Some of the test compounds of the present invention were obtained and applied as their salts. According cases are indicated in the column “Specification” in Table 55 to Table 92 and by their sum formula in Table 93.
(§2) The assays were performed in duplicate or more replicates of independent single experiments each containing a six-fold replicate for every condition. For every individual plate, the measured fluorescence intensity values of the conditions with compound treatment were normalized against the corresponding equally weighted arithmetic mean of the fluorescence intensity values of the six DMSO treated control wells in order to obtain the relative values to a baseline level of 1.0.
(§3) Two independent outlier analyses were performed according to the methods by Peirce and Chauvenet (Ross, Journal of Engineering Technology 2003, 1-12). Outliers confirmed by at least one of the methods were excluded from the calculations but not more than one value out of six per compound within a single experiment. The weighted arithmetic mean (here abbreviated as AVEw) for each compound was calculated from the normalized values over all independent replicates of the single experiments comprising the six replicates each. The corresponding standard deviation for the weighted arithmetic mean was calculated according to the method described by Bronstein et al. (Bronstein, Semendjajew, Musiol, Müihlig, Taschenbuch der Mathematik, 5th edition 2001 (German), publisher: Verlag Harri Deutsch, Frankfurt am Main and Thun) and was combined with the Gauß' error propagation associated with the performed calculation for the normalization. The resulting standard deviation is herein referred to as “combined standard deviation”. […]
On the technique in general: Alamar Blue is a resazurin reagent that responds to reducing activity.

Assay [2] deals with CAL-27 cells (human tongue squamous cell carcinoma cells). The assay can be described thus: Proliferation assay (alamarBlue) with CAL-27 cells. The following applies: for Activity Range (weighted arithmetic mean AVEw of normalized fluorescence intensity, relative to DMSO basis level 1.0): 20 μM; for Activity Range (weighted arithmetic mean of normalized fluorescence intensity, relative to DMSO basis level 1.0): control at 40 μM.
Description: as §1, §2, §3

Assay [3] has as its system BHY cells (human oral squamous cell carcinoma cells). The assay can be described thus: Proliferation assay (alamarBlue) with BHY cells. On the set-up: key: fluorescence relative to mean of DMSO control wells = 1.0. The following applies: for Activity Range (weighted arithmetic mean AVEw of normalized fluorescence intensity, relative to DMSO basis level 1.0): 20 μM; for Activity Range (weighted arithmetic mean of normalized fluorescence intensity, relative to DMSO basis level 1.0): control at 40 μM.
Description: as §1, §2, §3

For assay [4], the system named is human epidermal keratinocyte progenitors (HPEKp, pooled). The assay can be described thus: Proliferation assay (alamarBlue) with HPEKp cells. From the text:
(§4) The antiproliferative activities of compounds falling under formula (Ia), (Ib) and (Ic), respectively, were investigated on cells or cell lines originating from a disorder of the haematopoietic system, including the myeloid cell compartment and the lymphoid cell compartment (T-cells and B-cells), the neuroendocrine system, the cervix, the breast, the ovaries, the lung, the gastrointestinal tract, and the mucosal epithelium, as well as from the skin epithelium and from the muscle. To this end, HL-60 cells, NB-4 cells, HH cells, RPMI-8402 cells, TANOUE cells, TT cells, HeLa cells, MDA-MB-231 cells, FU-OV-1 cells, LOU-NH91 cells, 23132/87 cells, CAL-27 cells, BHY cells, SCC-25 cells, A-431 cells, human primary epidermal keratinocytes (HPEK), and C2C12 cells were seeded into 96-well plates suitable for fluorescence assays (CORNING #3598) at following initial cell numbers: 1000 cells per well for HL-60; 1000 cells per well for NB-4; 5000 cells per well for HH; 5000 cells per well for RPMI-8402; 1500 cells per well for TANOUE; 9000 cells per well for TT; 2000 cells per well for HeLa; 3000 cells per well for MDA-MB-231; 3000 cells per well for FU-OV-1; 4000 cells per well for LOU-NH91; 2000 cells per well for 23132/87; 2000 cells per well for CAL-27; 1500 cells per well for BHY; 1500 cells per well for SCC-25; 700 cells per well for A-431; 1000 cells per well for HPEK; 500 cells per well for C2C12. […] The readout was taken with a multi-well plate-reader in the fluorescence mode with applying a filter for excitation at 560 nm (band width 10 nm) and for emission at 590 nm (band width 10 nm). […]
(§5) The assays were performed in duplicate or more replicates of independent single experiments each containing a six-fold replicate for every condition. For every individual plate, the measured fluorescence intensity values of the conditions with compound treatment were normalized against the corresponding equally weighted arithmetic mean of the fluorescence intensity values of the six DMSO treated control wells in order to obtain the relative values to a baseline level of 1.0. […]

Assay [5] relates to C2C12 cells (murine myoblast cells). The assay can be described thus: Proliferation assay (alamarBlue) with C2C12 cells.
Description: as §4, §5

[6] abbreviates: Table 78 (compounds disclosed in PCT/EP2018/054686).
Where [7] appears, read: Table 80 (compounds disclosed in PCT/EP2018/054686).
Where [8] appears, read: Table 81 (compounds disclosed in PCT/EP2018/054686).
Setting [9] is: compounds and controls at 20 μM.

For the compound `CN(Cc1cnc2nc(N)nc(N)c2n1)c1ccc(C(=O)N[C@@H](CCC(=O)O)C(=O)O)cc1` [MTREX, Methotrexate], the activity at 20 µM in assay [1] turned out to be 60%. In addition, the “Activity Range: weighted arithmetic mean (AVEw) of normalized fluorescence intensity relative to DMSO basis level 1.0” value in assay [1] amounted to 0.6 ± 0.0. In addition, the “Activity Range (weighted arithmetic mean AVEw of normalized fluorescence intensity, relative to DMSO basis level 1.0)” value in assay [2] (Table 77 (novel compounds)) came out at 0.1 ± 0.0; in assay [2] (setting [6]) it was 0.1 ± 0.0; in assay [3] (Table 79 (novel compounds)) it was 0.3 ± 0.0; in assay [3] (setting [7]), 0.3 ± 0.0; in assay [3] (setting [8]) it was 0.3 ± 0.0. For the same compound, the “Activity Range: weighted arithmetic mean (AVEw) of normalized fluorescence intensity, relative to DMSO basis level of 1.0” value in assay [4] (control at 20 μM) is on record as 0.9 ± 0.0; in assay [5] (setting [9]) it was 0.1 ± 0.0.
`Oc1ccc(C=Cc2cc(O)cc(O)c2)cc1` [RES, Resveratrol]: in assay [1], the activity at 20 µM was found to be 60%. For the same compound, the “Activity Range: weighted arithmetic mean (AVEw) of normalized fluorescence intensity relative to DMSO basis level 1.0” value in assay [1] is reported as 0.6 ± 0.0. The “Activity Range (weighted arithmetic mean AVEw of normalized fluorescence intensity, relative to DMSO basis level 1.0)” value in assay [2] (Table 77 (novel compounds)) was determined as 0.8 ± 0.1; in assay [2] (setting [6]) it was 0.8 ± 0.1; in assay [3] (setting [7]), 0.5 ± 0.1; in assay [3] (setting [8]), 0.5 ± 0.1. The “Activity Range (weighted arithmetic mean of normalized fluorescence intensity, relative to DMSO basis level 1.0)” value is on record as 0.4 ± 0.3 in assay [2] (Table 77); 0.4 ± 0.3 in assay [2] (Table 78); 0.3 ± 0.0 in assay [3] (Table 79); 0.3 ± 0.0 in assay [3] (Table 80); 0.3 ± 0.0 in assay [3] (Table 81). The “Activity Range: weighted arithmetic mean (AVEw) of normalized fluorescence intensity, relative to DMSO basis level of 1.0” value was determined as 0.2 ± 0.0 in assay [4] (control at 20 μM), 0.2 ± 0.0 in assay [4] (control at 40 μM), 0.8 ± 0.0 in assay [5] (setting [9]) and 0.2 ± 0.1 in assay [5] (control at 40 μM).
